Experimental data taken from patent US4650803A, “Prodrugs of rapamycin” (University of Kansas, priority 1985, dated 1987).
“Also recorded” adds a separate entry of the source. Structures can show the parent of a compound that is named as a salt.

What was measured:
[1] = Rat plasma stability study (37.5° C.); format: in vitro ADME, Sprague-Dawley male albino rats; settings: for half-life: rat, plasma, read-out: t1/2 (plasma stability) (converted)
Description: (§1) The plasma studies were done at three prodrug concentrations: 200, 100 and 50 μg/ml of prodrug. The experimental procedure was as follows: The compound to be tested was taken from a stock aqueous solution of 5 mg/ml and added to the plasma to give the desired prodrug concentration. […] Before centrifugation 200 μl of methanol was added to further precipitate the plasma proteins. The results are expressed in half-lives in hours.
(§2) The chemical and plasma studies were followed by HPLC using a RP C-18 column (150 mm) and a precolumn (50 mm). […] Chart speed was 1 inch/10 minutes.

[2] = background statement; cited from earlier work
[3] = Human plasma stability study (37.5° C.); format: in vitro ADME; settings: for half-life: human, plasma
Description: as §1, §2

[4] = Chemical stability study in buffers (hydrolysis half-life, HPLC); format: physicochemical; settings: buffer, read-out: t1/2 (chemical stability) (converted)
Description: In the examples, chemical stability studies for rapamycin and the prodrugs were done at 20 μg/ml with an ionic strength of 0.5. Stabilities at pH 3.3 (0.05M acetate buffer) and pH 7.4 (0.05M phosphate buffer) were studied at 25° and 37.5° C. No antioxidants were added and the buffers were not deoxygenated.
as §2

[5] = Products of decomposition/hydrolysis in plasma and homogenate studies (HPLC, TLC)
Description: (§3) The liver homogenate studies were done using livers freshly obtained from male albino Sprague-Dawley rats. A 20% liver homogenate was prepared in Sorensen's buffer at pH 7.4. Chemical stability studies of rapamycin and the two prodrugs of Examples 2 and 3 were carried out at concentrations of 20, 50 and 50 μg/ml respectively, at 37.5° C.

[6] = Rat liver homogenate stability study (37.5° C.); format: in vitro ADME, male albino Sprague-Dawley rats; settings: 20% rat liver homogenate, pH 7.4, 50 μg/ml, read-out: t1/2 (liver homogenate stability) (converted)
Description: as §3

Solubility in water = format: physicochemical
[7] = Stability to light and to long stirring; format: physicochemical
[8] = human plasma, 50 μg/ml, 37.5° C., read-out: t1/2 (plasma stability) (converted)

half-life ([1]; 50 μg/ml) [h] | half-life [3, 8] [h] | half-life ([4]; pH 3.3, pH 3.3, 25° C.) [h] | half-life ([4]; pH 7.4, pH 7.4, 25° C.) [h] | half-life [6] [h] | solubility (Solubility in water) [mg/mL] | half-life ([1]; 100 μg/ml) [h] | half-life ([1]; 200 μg/ml) [h] | SMILES | stability on prolonged exposure to light [7] | other results
2.83 | 3 | 35.8 | 47.6 | 5.5 | – | – | – | CO[C@H]1C[C@@H]2CC[C@@H](C)[C@@](O)(O2)C(=O)C(=O)N2CCCC[C@H]2C(=O)O[C@H]([C@H](C)C[C@@H]2CC[C@@H](O)[C@H](OC)C2)CC(=O)[C@H](C)/C=C(\C)[C@@H](O)[C@@H](OC)C(=O)[C@H](C)C[C@H](C)/C=C/C=C/C=C/1C [Rapamycin, rapamycin] | – | Solubility in water [2]: 20 micrograms per milliliter; half-life ([4]; pH 3.3, pH 3.3, 37.5° C.): 9.9 h; half-life ([4]; pH 7.4, pH 7.4, 37.5° C.): 10.2 h; further degradation (TLC) ([5]; plasma and homogenate studies, TLC): further degraded to other decomposition products
– | – | – | – | – | ~15 | – | – | CO[C@H]1C[C@@H]2CC[C@@H](C)[C@@](O)(O2)C(=O)C(=O)N2CCCC[C@H]2C(=O)O[C@H]([C@H](C)C[C@@H]2CC[C@@H](O)[C@H](OC)C2)CC(=O)[C@H](C)/C=C(\C)[C@@H](OC(=O)CCCN2CCCC2)[C@@H](OC)C(=O)[C@H](C)C[C@H](C)/C=C/C=C/C=C/1C [Example 4, Mono-(28)-4'-(N-pyrrolidino)-butyrate Hydrochloride Salt Ester of Rapamycin] | appears to discolor upon prolonged exposure to light | –
– | – | – | – | 3.7 | > 50 | 58 | 60 | CCN(CC)CCC(=O)O[C@@H]1/C(C)=C/[C@@H](C)C(=O)C[C@@H]([C@H](C)C[C@@H]2CC[C@@H](O)[C@H](OC)C2)OC(=O)[C@@H]2CCCCN2C(=O)C(=O)[C@]2(O)O[C@@H](CC[C@H]2C)C[C@H](OC)/C(C)=C/C=C/C=C/[C@@H](C)C[C@@H](C)C(=O)[C@@H]1OC [Example 3, Mono-(28)-3-(N,N-Diethylamino)propionate Hydrochloride Salt Ester of Rapamycin] | unstable to prolonged exposure to light; also recorded: appears to discolor upon prolonged exposure to light | half life of the prodrug compared with the others [3]: the shortest; time within which half of the prodrug decomposed into products including mainly rapamycin [3]: two and one-half; half-life ([3]; t1/2 (plasma stability)): 2.5 h; observed product of hydrolysis / decomposition [5]: rapamycin being the only observed product of hydrolysis
1.8 | 5 | 73 | 45 | 4.5 | > 50 | 1.8 | 2.5 | CO[C@H]1C[C@@H]2CC[C@@H](C)[C@@](O)(O2)C(=O)C(=O)N2CCCC[C@H]2C(=O)O[C@H]([C@H](C)C[C@@H]2CC[C@@H](O)[C@H](OC)C2)CC(=O)[C@H](C)/C=C(\C)[C@@H](OC(=O)CN(C)C)[C@@H](OC)C(=O)[C@H](C)C[C@H](C)/C=C/C=C/C=C/1C [Example 2, Methanesulfonic Acid Salt of Mono-(28)-N,N Dimethylglycinate Ester of Rapamycin] | slow discoloration of the material; also recorded: appears to discolor upon prolonged exposure to light | t1/2 (plasma stability) ([1]; 50 μg/ml): 1.75 h; t1/2 (plasma stability) ([3]; human plasma, 50 μg/ml, 37.5° C.): 5.0 h; half-life ([3]; human plasma, 100 μg/ml, 37.5° C., read-out: t1/2 (plasma stability) (converted)): 4.8 h; half-life ([3]; human plasma, 200 μg/ml, 37.5° C., read-out: t1/2 (plasma stability) (converted)): 5.6 h; stability to long stirring times ([7]; salt form): unstable to long stirring times
